Results on 23 molecules are retold here after patent US8426345B2, “Method of drug design” (Alchemia Limited, priority 2005, dated 2013).

For this assay, the target named is T1, Human SST5 somatostatin receptor (Homo sapiens, UniProt P35346).
T1 construct: expressed in transfected cells; host or cells: HEK-293 EBNA cells (membranes)
Kind of assay: Filter plate radio-ligand binding assay for SST5 receptor ([125I]SST-14 displacement). Conditions: for % SST5 radio-ligand binding displaced at conc 50: compound conc 50 μM; for % SST5 radio-ligand binding displaced at conc 50 / % SST5 radio-ligand binding displaced at conc 250 / % SST5 radio-ligand binding displaced at conc 500: 2P library; for % SST5 radio-ligand binding displaced at conc 250: compound conc 250 μM; for % SST5 radio-ligand binding displaced at conc 500: compound conc 500 μM; for % SST5 radio-ligand binding displaced at conc 0.25: conc 0.25 μM; for % SST5 radio-ligand binding displaced at conc 0.25 / % SST5 radio-ligand binding displaced at conc 1.0 / % SST5 radio-ligand binding displaced at conc 0.5 / % SST5 radio-ligand binding displaced at conc 10 / % SST5 radio-ligand binding displaced at conc 0.001 / % SST5 radio-ligand binding displaced at conc 0.10: 3P library; for % SST5 radio-ligand binding displaced at conc 1.0: conc 1.0 μM; for % SST5 radio-ligand binding displaced at conc 0.5: conc 0.5 μM; for % SST5 radio-ligand binding displaced at conc 10: conc 10 μM; for % SST5 radio-ligand binding displaced at conc 0.001: conc 0.001 μM; for % SST5 radio-ligand binding displaced at conc 0.10: conc 0.10 μM.

T1 sequence (P35346 whole entry): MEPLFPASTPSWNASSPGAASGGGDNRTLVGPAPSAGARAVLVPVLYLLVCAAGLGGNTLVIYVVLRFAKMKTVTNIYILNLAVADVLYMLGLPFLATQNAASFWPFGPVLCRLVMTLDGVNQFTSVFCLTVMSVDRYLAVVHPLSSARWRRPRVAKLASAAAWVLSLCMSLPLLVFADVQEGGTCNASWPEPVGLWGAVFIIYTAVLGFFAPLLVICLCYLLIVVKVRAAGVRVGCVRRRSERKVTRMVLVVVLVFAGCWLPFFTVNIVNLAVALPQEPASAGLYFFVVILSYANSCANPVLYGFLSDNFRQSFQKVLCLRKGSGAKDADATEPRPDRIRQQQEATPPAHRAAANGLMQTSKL

As for `CO[C@@H]1[C@H](O)[C@@H](COCc2ccc3ccccc3c2)O[C@@H](SC)[C@@H]1NC(=O)CCCN` [Compound 42], the “% SST5 radio-ligand binding displaced at conc 50” value was “− (% SST5 radio-ligand binding displaced at cone (μM) −<40%)”, the “% SST5 radio-ligand binding displaced at conc 250” value is recorded as “− (% SST5 radio-ligand binding displaced at cone (μM) −<40%)” and the “% SST5 radio-ligand binding displaced at conc 500” value is listed as “+ (% SST5 radio-ligand binding displaced at cone (μM) 60>+>40%)”.

Consider `COC[C@H]1O[C@@H](SC)[C@H](NC(=O)CCN)[C@H](OCc2ccc3ccccc3c2)[C@@H]1O` [Compound 57], for which the “% SST5 radio-ligand binding displaced at conc 50” value is listed as “− (% SST5 radio-ligand binding displaced at cone (μM) −<40%)”, the “% SST5 radio-ligand binding displaced at conc 250” value is “− (% SST5 radio-ligand binding displaced at cone (μM) −<40%)” and the “% SST5 radio-ligand binding displaced at conc 500” value is reported as “− (% SST5 radio-ligand binding displaced at cone (μM) −<40%)”.

For the molecule `COC1C(O)C(COCc2ccc(Cl)cc2)OC(OCc2ccc3ccccc3c2)C1NC(=O)CCN` (single isomer, unassigned) [Compound 94], the “% SST5 radio-ligand binding displaced at conc 0.25” value is listed as “− (% SST5 radio-ligand binding displaced at cone (μM) −<40%)” and the “% SST5 radio-ligand binding displaced at conc 1.0” value was “− (% SST5 radio-ligand binding displaced at cone (μM) −<40%)”.

Take `COC[C@H]1O[C@H](OCc2ccc3ccccc3c2)[C@H](NC(=O)CCCN)[C@@H](OC)[C@@H]1O` [Compound 6]: the “% SST5 radio-ligand binding displaced at conc 50” value is on record as “− (% SST5 radio-ligand binding displaced at cone (μM) −<40%)”, the “% SST5 radio-ligand binding displaced at conc 250” value was “+ (% SST5 radio-ligand binding displaced at cone (μM) 60>+>40%)” and the “% SST5 radio-ligand binding displaced at conc 500” value is reported as “++ (% SST5 radio-ligand binding displaced at conc (μM) >60%)”.

Take `NCCC(=O)NC1C(OCc2ccc3ccccc3c2)OC(COCc2ccc3ccccc3c2)C(O)C1OCc1ccc2ccccc2c1` (mixture of isomers) [Compound 73]: the “% SST5 radio-ligand binding displaced at conc 0.25” value is on record as “− (% SST5 radio-ligand binding displaced at cone (μM) −<40%)” and the “% SST5 radio-ligand binding displaced at conc 1.0” value is given as “+ (% SST5 radio-ligand binding displaced at cone (μM) 60>+>40%)”.

Consider `CO[C@H]1[C@H](O)[C@@H](COCc2ccc3ccccc3c2)O[C@@H](SC)[C@@H]1NC(=O)CCN` [Compound 16], for which the “% SST5 radio-ligand binding displaced at conc 50” value is “− (% SST5 radio-ligand binding displaced at cone (μM) −<40%)”, the “% SST5 radio-ligand binding displaced at conc 250” value is listed as “− (% SST5 radio-ligand binding displaced at cone (μM) −<40%)” and the “% SST5 radio-ligand binding displaced at conc 500” value is “+ (% SST5 radio-ligand binding displaced at cone (μM) 60>+>40%)”.

For the molecule `COC[C@H]1O[C@H](OCc2ccc3ccccc3c2)[C@H](NC(=O)CCN)[C@@H](OCc2ccc3ccccc3n2)[C@@H]1O` [Compound 116], the “% SST5 radio-ligand binding displaced at conc 0.25” value is reported as “+ (% SST5 radio-ligand binding displaced at cone (μM) 60>+>40%)” and the “% SST5 radio-ligand binding displaced at conc 1.0” value is recorded as “++ (% SST5 radio-ligand binding displaced at conc (μM) >60%)”.

In the case of `COC1C(O)C(COCc2ccc3ccccc3c2)OC(OCc2ccc(Cl)cc2)C1NC(=O)C1CCCN1` (mixture of isomers) [Compound 165], the “% SST5 radio-ligand binding displaced at conc 0.5” value is recorded as “− (% SST5 radio-ligand binding displaced at cone (μM) −<40%)” and the “% SST5 radio-ligand binding displaced at conc 10” value was “++ (% SST5 radio-ligand binding displaced at conc (μM) >60%)”.

Regarding `COC[C@H]1O[C@@H](OCc2ccc(Cl)cc2)[C@H](NC(=O)CCN)[C@H](OC)[C@@H]1O` [Compound 39], the “% SST5 radio-ligand binding displaced at conc 50” value is listed as “− (% SST5 radio-ligand binding displaced at cone (μM) −<40%)”, the “% SST5 radio-ligand binding displaced at conc 250” value is “− (% SST5 radio-ligand binding displaced at cone (μM) −<40%)” and the “% SST5 radio-ligand binding displaced at conc 500” value was “++ (% SST5 radio-ligand binding displaced at conc (μM) >60%)”.

With `COC1C(O)C(COCc2ccc(-c3ccccc3)cc2)OC(OCc2ccc3ccccc3c2)C1NC(=O)CCCN` (mixture of isomers) [Compound 121], the “% SST5 radio-ligand binding displaced at conc 0.5” value is recorded as “+ (% SST5 radio-ligand binding displaced at cone (μM) 60>+>40%)” and the “% SST5 radio-ligand binding displaced at conc 10” value is “+ (% SST5 radio-ligand binding displaced at cone (μM) 60>+>40%)”.

Consider `COC[C@H]1O[C@H](OCc2ccc3ccccc3c2)[C@H](NC(=O)CCN)[C@H](OCc2ccc3ccccc3c2)[C@@H]1O` [Compound 86], for which the “% SST5 radio-ligand binding displaced at conc 0.5” value is listed as “++ (% SST5 radio-ligand binding displaced at conc (μM) >60%)” and the “% SST5 radio-ligand binding displaced at conc 10” value is “++ (% SST5 radio-ligand binding displaced at conc (μM) >60%)”.

`COCC1OC(OCc2ccc3ccccc3c2)C(NC(=O)CCN)C(OCc2ccc(-c3ccccc3)cc2)C1O` (mixture of isomers) [Compound 68]: the “% SST5 radio-ligand binding displaced at conc 0.001” value is on record as “− (% SST5 radio-ligand binding displaced at cone (μM) −<40%)”, the “% SST5 radio-ligand binding displaced at conc 0.10” value was “− (% SST5 radio-ligand binding displaced at cone (μM) −<40%)”, the “% SST5 radio-ligand binding displaced at conc 0.25” value is listed as “− (% SST5 radio-ligand binding displaced at cone (μM) −<40%)” and the “% SST5 radio-ligand binding displaced at conc 0.5” value is given as “++ (% SST5 radio-ligand binding displaced at conc (μM) >60%)”. The “% SST5 radio-ligand binding displaced at conc 1.0” value is “++ (% SST5 radio-ligand binding displaced at conc (μM) >60%)” and the “% SST5 radio-ligand binding displaced at conc 10” value was “++ (% SST5 radio-ligand binding displaced at conc (μM) >60%)”.

`COCC1OC(OCc2ccc(Cl)cc2)C(NC(=O)CN)C(OCc2ccc3ccccc3c2)C1O` (mixture of isomers) [Compound 174]: the “% SST5 radio-ligand binding displaced at conc 0.25” value is reported as “− (% SST5 radio-ligand binding displaced at cone (μM) −<40%)” and the “% SST5 radio-ligand binding displaced at conc 1.0” value is reported as “− (% SST5 radio-ligand binding displaced at cone (μM) −<40%)”.

Take `COCC1OC(OCc2ccc3ccccc3c2)C(NC(=O)CCCN)C(OCc2ccccc2)C1O` (mixture of isomers) [Compound 126]: the “% SST5 radio-ligand binding displaced at conc 0.001” value is on record as “− (% SST5 radio-ligand binding displaced at cone (μM) −<40%)”, the “% SST5 radio-ligand binding displaced at conc 0.10” value was “− (% SST5 radio-ligand binding displaced at cone (μM) −<40%)”, the “% SST5 radio-ligand binding displaced at conc 0.5” value is reported as “+ (% SST5 radio-ligand binding displaced at cone (μM) 60>+>40%)” and the “% SST5 radio-ligand binding displaced at conc 1.0” value is “+ (% SST5 radio-ligand binding displaced at cone (μM) 60>+>40%)”. Also, the “% SST5 radio-ligand binding displaced at conc 10” value is listed as “++ (% SST5 radio-ligand binding displaced at conc (μM) >60%)”.

As to `COC[C@H]1O[C@H](OCc2ccc(Cl)cc2)[C@H](NC(=O)CCN)[C@@H](OC)[C@@H]1O` [Compound 19], the “% SST5 radio-ligand binding displaced at conc 50” value was “− (% SST5 radio-ligand binding displaced at cone (μM) −<40%)”, the “% SST5 radio-ligand binding displaced at conc 250” value is given as “− (% SST5 radio-ligand binding displaced at cone (μM) −<40%)” and the “% SST5 radio-ligand binding displaced at conc 500” value is recorded as “++ (% SST5 radio-ligand binding displaced at conc (μM) >60%)”.

`COC[C@H]1O[C@H](OCc2ccc3ccccc3c2)[C@H](NC(=O)CN)[C@H](OC)[C@@H]1O` [Compound 34]: the “% SST5 radio-ligand binding displaced at conc 50” value is “− (% SST5 radio-ligand binding displaced at cone (μM) −<40%)”, the “% SST5 radio-ligand binding displaced at conc 250” value was “− (% SST5 radio-ligand binding displaced at cone (μM) −<40%)” and the “% SST5 radio-ligand binding displaced at conc 500” value is recorded as “− (% SST5 radio-ligand binding displaced at cone (μM) −<40%)”.

For `COC[C@H]1O[C@@H](OCc2ccc3ccccc3c2)[C@H](NC(=O)CCCN)[C@@H](OC)[C@@H]1O` [Compound 28], the “% SST5 radio-ligand binding displaced at conc 50” value was “− (% SST5 radio-ligand binding displaced at cone (μM) −<40%)”, the “% SST5 radio-ligand binding displaced at conc 250” value is recorded as “− (% SST5 radio-ligand binding displaced at cone (μM) −<40%)” and the “% SST5 radio-ligand binding displaced at conc 500” value is listed as “++ (% SST5 radio-ligand binding displaced at conc (μM) >60%)”.

On to `COC[C@H]1O[C@@H](SC)[C@H](NC(=O)CCN)[C@H](OCc2ccc(Cl)cc2)[C@@H]1O` [Compound 37], for which the “% SST5 radio-ligand binding displaced at conc 50” value is “− (% SST5 radio-ligand binding displaced at cone (μM) −<40%)”, the “% SST5 radio-ligand binding displaced at conc 250” value is “− (% SST5 radio-ligand binding displaced at cone (μM) −<40%)” and the “% SST5 radio-ligand binding displaced at conc 500” value is on record as “− (% SST5 radio-ligand binding displaced at cone (μM) −<40%)”.

`COC1C(O)C(COCc2ccc(-c3ccccc3)cc2)OC(OCc2ccc(Cl)cc2)C1NC(=O)CN` (mixture of isomers) [Compound 178]: the “% SST5 radio-ligand binding displaced at conc 0.25” value is “− (% SST5 radio-ligand binding displaced at cone (μM) −<40%)” and the “% SST5 radio-ligand binding displaced at conc 1.0” value is given as “− (% SST5 radio-ligand binding displaced at cone (μM) −<40%)”.

Regarding `CO[C@H]1[C@H](O)[C@@H](COCc2ccc(Cl)cc2)O[C@@H](SC)[C@@H]1NC(=O)CCN` [Compound 15], the “% SST5 radio-ligand binding displaced at conc 50” value is given as “− (% SST5 radio-ligand binding displaced at cone (μM) −<40%)”, the “% SST5 radio-ligand binding displaced at conc 250” value is “− (% SST5 radio-ligand binding displaced at cone (μM) −<40%)” and the “% SST5 radio-ligand binding displaced at conc 500” value is recorded as “− (% SST5 radio-ligand binding displaced at cone (μM) −<40%)”.

Turning to `COC[C@H]1OC(OCc2ccc(Cl)cc2)[C@H](NC(=O)CN)[C@@H](OCc2ccccc2)[C@@H]1O` (single isomer, unassigned) [Compound 169], the “% SST5 radio-ligand binding displaced at conc 0.25” value is given as “− (% SST5 radio-ligand binding displaced at cone (μM) −<40%)” and the “% SST5 radio-ligand binding displaced at conc 1.0” value is “− (% SST5 radio-ligand binding displaced at cone (μM) −<40%)”.

As for `NCCC(=O)NC1C(OCc2ccc3ccccc3c2)OC(COCc2ccccc2)C(O)C1OCc1ccc2ccccc2c1` (mixture of isomers) [Compound 74], the “% SST5 radio-ligand binding displaced at conc 0.25” value is “− (% SST5 radio-ligand binding displaced at cone (μM) −<40%)” and the “% SST5 radio-ligand binding displaced at conc 1.0” value was “++ (% SST5 radio-ligand binding displaced at conc (μM) >60%)”.

With `COC[C@H]1O[C@H](OCc2ccc3ccccc3c2)[C@H](NC(=O)CCN)[C@@H](OCc2cccc3ccccc23)[C@@H]1O` [Compound 114], the “% SST5 radio-ligand binding displaced at conc 0.25” value is reported as “++ (% SST5 radio-ligand binding displaced at conc (μM) >60%)” and the “% SST5 radio-ligand binding displaced at conc 1.0” value is given as “++ (% SST5 radio-ligand binding displaced at conc (μM) >60%)”.
